# Reference: the supplement of paper PMC10307832
# How the values were obtained:
# Assay in all cases: relative viability (nuclei count vs DMSO), 5 days (fraction); higher = more cells survive
# NCI-H2023 = tested on: NCI-H2023
# How it was run: (§1)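 The day after seeding in 1536-well plates, lung cancer cell lines were treated by pin tool with a single drug, or with a fixed anchor-drug dose together with five library-drug doses (not always all listed) in √10 steps. After 5 days, a combined fix-and-stain solution (final 0.05% Triton X-100, 1% formaldehyde, 1 ug/ml Hoechst) was added. Nuclei counted on 4× images gave relative viability as treated counts over vehicle counts, reported as the median of duplicate plates.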
# ChaGo-K-1 = tested on: ChaGo-K-1
# How it was run: as §1
# NCI-H1944 = tested on: NCI-H1944
# How it was run: as §1
# LC-2-ad = tested on: LC-2-ad
# How it was run: as §1
# NCI-H23 = tested on: NCI-H23
# How it was run: as §1
# HARA = tested on: HARA
# How it was run: as §1
# NCI-H1793 = tested on: NCI-H1793
# How it was run: as §1
# NCI-H2126 = tested on: NCI-H2126
# How it was run: as §1
# NCI-H2228 = tested on: NCI-H2228
# How it was run: as §1
# NCI-H1993 = tested on: NCI-H1993
# How it was run: as §1
# SK-LU-1 = tested on: SK-LU-1
# How it was run: as §1
# HCC-15 = tested on: HCC-15
# How it was run: as §1
# COR-L23 = tested on: COR-L23
# How it was run: as §1
# HOP-62 = tested on: HOP-62
# How it was run: as §1
# NCI-H1395 = tested on: NCI-H1395
# How it was run: as §1
# HCC-366 = tested on: HCC-366
# How it was run: as §1
# NCI-H2405 = tested on: NCI-H2405
# How it was run: as §1
# NCI-H838 = tested on: NCI-H838
# How it was run: as §1
# EMC-BAC-2 = tested on: EMC-BAC-2
# How it was run: as §1
# ABC-1 = tested on: ABC-1
# How it was run: as §1
# HCC-78 = tested on: HCC-78
# How it was run: as §1
# NCI-H358 = tested on: NCI-H358
# How it was run: as §1
smiles,measurement,setting,value
O=c1cc(-c2cccc3c2Sc2ccccc2S3)oc(N2CCOCC2)c1 + O=C(CCCCCCC(=O)Nc1ccccc1)NO [Vorinostat] (partner 1 µM),relative viability,NCI-H2023; first compound 0.08 µM,0.707
same,relative viability,NCI-H2023; first compound 0.253 µM,0.752
same,relative viability,NCI-H2023; first compound 0.8 µM,0.718
same,relative viability,NCI-H2023; first compound 2.53 µM,0.583
same,relative viability,NCI-H2023; first compound 8 µM,0.451
same,relative viability,ChaGo-K-1; first compound 0.08 µM,0.765
same,relative viability,ChaGo-K-1; first compound 0.253 µM,0.859
same,relative viability,ChaGo-K-1; first compound 0.8 µM,0.876
same,relative viability,ChaGo-K-1; first compound 2.53 µM,0.753
same,relative viability,ChaGo-K-1; first compound 8 µM,0.847
same,relative viability,NCI-H1944; first compound 0.08 µM,0.58
same,relative viability,NCI-H1944; first compound 0.253 µM,0.586
same,relative viability,NCI-H1944; first compound 0.8 µM,0.513
same,relative viability,NCI-H1944; first compound 2.53 µM,0.544
same,relative viability,NCI-H1944; first compound 8 µM,0.596
same,relative viability,LC-2-ad; first compound 0.08 µM,0.683
same,relative viability,LC-2-ad; first compound 0.253 µM,0.835
same,relative viability,LC-2-ad; first compound 0.8 µM,0.684
same,relative viability,LC-2-ad; first compound 2.53 µM,0.695
same,relative viability,LC-2-ad; first compound 8 µM,0.69
same,relative viability,NCI-H23; first compound 0.08 µM,0.477
same,relative viability,NCI-H23; first compound 0.253 µM,0.593
same,relative viability,NCI-H23; first compound 0.8 µM,0.669
same,relative viability,NCI-H23; first compound 2.53 µM,0.543
same,relative viability,NCI-H23; first compound 8 µM,0.516
same,relative viability,HARA; first compound 0.08 µM,0.538
same,relative viability,HARA; first compound 0.253 µM,0.59
same,relative viability,HARA; first compound 0.8 µM,0.442
same,relative viability,HARA; first compound 8 µM,0.36
same,relative viability,NCI-H1793; first compound 0.08 µM,0.653
same,relative viability,NCI-H1793; first compound 0.253 µM,0.846
same,relative viability,NCI-H1793; first compound 0.8 µM,0.541
same,relative viability,NCI-H1793; first compound 2.53 µM,0.627
same,relative viability,NCI-H1793; first compound 8 µM,0.804
same,relative viability,NCI-H2126; first compound 0.08 µM,0.722
same,relative viability,NCI-H2126; first compound 0.253 µM,0.781
same,relative viability,NCI-H2126; first compound 0.8 µM,0.792
same,relative viability,NCI-H2126; first compound 2.53 µM,0.823
same,relative viability,NCI-H2126; first compound 8 µM,0.74
same,relative viability,NCI-H2228; first compound 0.08 µM,0.824
same,relative viability,NCI-H2228; first compound 0.253 µM,0.646
same,relative viability,NCI-H2228; first compound 0.8 µM,0.76
same,relative viability,NCI-H2228; first compound 2.53 µM,0.7
same,relative viability,NCI-H2228; first compound 8 µM,0.578
same,relative viability,NCI-H1993; first compound 0.08 µM,0.723
same,relative viability,NCI-H1993; first compound 0.253 µM,0.843
same,relative viability,NCI-H1993; first compound 0.8 µM,0.908
same,relative viability,NCI-H1993; first compound 2.53 µM,0.755
same,relative viability,NCI-H1993; first compound 8 µM,0.736
same,relative viability,SK-LU-1; first compound 0.08 µM,0.8
same,relative viability,SK-LU-1; first compound 0.253 µM,0.894
same,relative viability,SK-LU-1; first compound 0.8 µM,0.877
same,relative viability,SK-LU-1; first compound 2.53 µM,0.709
same,relative viability,SK-LU-1; first compound 8 µM,0.705
same,relative viability,HCC-15; first compound 0.08 µM,0.906
same,relative viability,HCC-15; first compound 0.253 µM,0.952
same,relative viability,HCC-15; first compound 0.8 µM,0.82
same,relative viability,HCC-15; first compound 2.53 µM,0.722
same,relative viability,HCC-15; first compound 8 µM,0.808
same,relative viability,COR-L23; first compound 0.08 µM,0.472
same,relative viability,COR-L23; first compound 0.253 µM,0.457
same,relative viability,COR-L23; first compound 0.8 µM,0.397
same,relative viability,COR-L23; first compound 2.53 µM,0.442
same,relative viability,COR-L23; first compound 8 µM,0.446
same,relative viability,HOP-62; first compound 0.08 µM,0.646
same,relative viability,HOP-62; first compound 0.253 µM,0.832
same,relative viability,HOP-62; first compound 0.8 µM,0.691
same,relative viability,HOP-62; first compound 2.53 µM,0.661
same,relative viability,HOP-62; first compound 8 µM,0.664
same,relative viability,NCI-H1395; first compound 0.08 µM,0.636
same,relative viability,NCI-H1395; first compound 0.253 µM,0.625
same,relative viability,NCI-H1395; first compound 0.8 µM,0.777
same,relative viability,NCI-H1395; first compound 2.53 µM,0.669
same,relative viability,NCI-H1395; first compound 8 µM,0.759
same,relative viability,HCC-366; first compound 0.08 µM,0.347
same,relative viability,HCC-366; first compound 0.253 µM,0.387
same,relative viability,HCC-366; first compound 0.8 µM,0.297
same,relative viability,HCC-366; first compound 2.53 µM,0.426
same,relative viability,HCC-366; first compound 8 µM,0.42
same,relative viability,NCI-H2405; first compound 0.08 µM,0.925
same,relative viability,NCI-H2405; first compound 0.253 µM,0.99
same,relative viability,NCI-H2405; first compound 0.8 µM,1.06
same,relative viability,NCI-H2405; first compound 2.53 µM,0.842
same,relative viability,NCI-H2405; first compound 8 µM,0.983
same,relative viability,NCI-H838; first compound 0.08 µM,0.746
same,relative viability,NCI-H838; first compound 0.253 µM,0.739
same,relative viability,NCI-H838; first compound 0.8 µM,0.831
same,relative viability,NCI-H838; first compound 2.53 µM,0.636
same,relative viability,NCI-H838; first compound 8 µM,0.535
same,relative viability,EMC-BAC-2; first compound 0.08 µM,0.35
same,relative viability,EMC-BAC-2; first compound 0.253 µM,0.471
same,relative viability,EMC-BAC-2; first compound 0.8 µM,0.524
same,relative viability,EMC-BAC-2; first compound 2.53 µM,0.607
same,relative viability,EMC-BAC-2; first compound 8 µM,0.48
same,relative viability,ABC-1; first compound 0.08 µM,1.13
same,relative viability,ABC-1; first compound 0.253 µM,1.1
same,relative viability,ABC-1; first compound 0.8 µM,1.24
same,relative viability,ABC-1; first compound 2.53 µM,1.15
same,relative viability,ABC-1; first compound 8 µM,0.972
same,relative viability,HCC-78; first compound 0.08 µM,0.478
same,relative viability,HCC-78; first compound 0.253 µM,0.529
same,relative viability,HCC-78; first compound 0.8 µM,0.376
same,relative viability,HCC-78; first compound 2.53 µM,0.39
same,relative viability,HCC-78; first compound 8 µM,0.474
same,relative viability,NCI-H358; first compound 0.08 µM,0.725
same,relative viability,NCI-H358; first compound 0.253 µM,0.651
same,relative viability,NCI-H358; first compound 0.8 µM,0.705
same,relative viability,NCI-H358; first compound 2.53 µM,0.71
same,relative viability,NCI-H358; first compound 8 µM,0.632
